Results published in ChEMBL document CHEMBL3085711, “Phosphorus-nitrogen compounds part 27. Syntheses, structural characterizations, antimicrobial and cytotoxic activities, and DNA interactions of new phosphazenes bearing secondary amino and pendant (4-fluorobenzyl)spiro groups” (2013).
Values after ≈ are worked out from the molar mass of the structure shown. Active and inactive are the calls of the source. No cut-off for these calls is given here.

How the values were obtained:
Candida albicans [1] = test: Antifungal activity against Candida albicans ATCC 10231 at 0.25 mM after 72 hrs by disk diffusion method; format: functional; conditions: ATCC 10231, 72 h, read-out: DIZ
Candida tropicalis [2] = test: Antifungal activity against Candida tropicalis ATCC 13803 at 0.25 mM after 72 hrs by disk diffusion method; format: functional; conditions: ATCC 13803, 72 h, read-out: DIZ
HeLa [3] = test: Cytotoxicity against human HeLa cells assessed as decrease in cell viability after 24 hrs by MTT assay; format: functional, cell-based
Escherichia coli [4] = test: Binding affinity to Escherichia coli pBR322 G/GATCC DNA assessed as DNA strand cleavage at 625 to 2500 uM preincubated for 24 hrs prior to BamHI treatment measured after 1 hr by agarose gel electrophoresis
Escherichia coli [5] = test: Binding affinity to Escherichia coli pBR322 DNA assessed as DNA strand cleavage at 156 to 2500 uM after 24 hrs by agarose gel electrophoresis
Candida albicans [6] = test: Antifungal activity against Candida albicans ATCC 10231; format: functional
Candida tropicalis [7] = test: Antifungal activity against Candida tropicalis ATCC 13803; format: functional
Candida albicans [8] = test: Antifungal activity against Candida albicans ATCC 10231 at 50 ug after 72 hrs by disk diffusion method; format: functional; conditions: ATCC 10231, 72 h, read-out: DIZ
Candida tropicalis [9] = test: Antifungal activity against Candida tropicalis ATCC 13803 at 50 ug after 72 hrs by disk diffusion method; format: functional; conditions: ATCC 13803, 72 h, read-out: DIZ
HeLa [10] = test: Cytotoxicity against human HeLa cells assessed as decrease in cell viability at 5 to 50 ug/ml after 24 hrs by MTT assay relative to control; format: functional
Escherichia coli [11] = test: Binding affinity to Escherichia coli pBR322 A/AGCTT DNA assessed as DNA strand cleavage at 625 to 2500 uM preincubated for 24 hrs prior to HindIII treatment measured after 1 hr by agarose gel electrophoresis
Bacillus subtilis [12] = test: Antibacterial activity against Bacillus subtilis at 0.25 mM after 24 hrs by disk diffusion method; format: functional; conditions: read-out: DIZ
Bacillus subtilis [13] = test: Antibacterial activity against Bacillus subtilis; format: functional
Bacillus cereus [14] = test: Antibacterial activity against Bacillus cereus at 0.25 mM after 24 hrs by disk diffusion method; format: functional; conditions: read-out: DIZ
Bacillus cereus [15] = test: Antibacterial activity against Bacillus cereus; format: functional
HeLa [16] = test: Cytotoxicity against human HeLa cells assessed as decrease in cell viability at 10 to 50 ug/ml after 24 hrs by MTT assay relative to control; format: functional, cell-based
HeLa [17] = test: Induction of apoptosis in human HeLa cells assessed as change in cellular morphology at 25 uM after 24 hrs by propidium iodide staining-based fluorescence microscopic analysis; format: functional, cell-based
HeLa [18] = test: Induction of apoptosis in human HeLa cells assessed as loss of mitochondrial membrane potential at 25 uM after 24 hrs by DiOC6 staining-based fluorescence microscopic analysis; format: functional, cell-based
HeLa [19] = test: Cytotoxicity against human HeLa cells assessed as decrease in cell viability at 5 ug/ml after 24 hrs by MTT assay relative to control; format: functional, cell-based
HeLa [20] = test: Cytotoxicity against human HeLa cells assessed as decrease in cell survival at 10 ug/ml after 48 hrs by trypan blue exclusion assay; format: functional, cell-based
HeLa [21] = test: Induction of apoptosis in human HeLa cells at 25 uM after 48 to 72 hrs by DAPI staining-based fluorescence microscopic analysis; format: functional, cell-based
Bacillus subtilis [22] = test: Antibacterial activity against Bacillus subtilis at 30 ug after 24 hrs by disk diffusion method; format: functional; conditions: read-out: DIZ
Bacillus cereus [23] = test: Antibacterial activity against Bacillus cereus at 30 ug after 24 hrs by disk diffusion method; format: functional; conditions: read-out: DIZ
Bacillus subtilis [24] = test: Antibacterial activity against Bacillus subtilis at 10 ug after 24 hrs by disk diffusion method; format: functional; conditions: read-out: DIZ
Bacillus cereus [25] = test: Antibacterial activity against Bacillus cereus at 10 ug after 24 hrs by disk diffusion method; format: functional; conditions: read-out: DIZ

With `CN1CCN(Cc2ccc(F)cc2)P12=NP(N1CCCCC1)(N1CCCCC1)=NP(N1CCCCC1)(N1CCCCC1)=N2` (centres undefined) the zone of inhibition at 250 µM (Candida albicans [1]) was 13.6 mm, the zone of inhibition at 250 µM (Candida tropicalis [2]) was 17.3 mm and the Activity (HeLa [3]) was “Dose-dependent effect”. The Activity (Escherichia coli [4]) was “Active”, the Activity (Escherichia coli [5]) was “Active” and the MIC (Candida albicans [6]) was 156 µM (≈ 102 µg/mL). It also gave an MIC (Candida tropicalis [7]) of 156 µM (≈ 102 µg/mL).

With `CC(=O)N1CCN(c2ccc(OCC3COC(Cn4ccnc4)(c4ccc(Cl)cc4Cl)O3)cc2)CC1` (centres undefined) [KETOCONAZOLE] the zone of inhibition at 50 µg/disc (Candida albicans [8]) was 29 mm and the zone of inhibition at 50 µg/disc (Candida tropicalis [9]) was 29 mm.

For `CCN1CCN(Cc2ccc(F)cc2)P12=NP(N1CCOCC1)(N1CCOCC1)=NP(N1CCOCC1)(N1CCOCC1)=N2` (centres undefined), the Activity (HeLa [10]) was “inactive”, the Activity (Escherichia coli [11]) was “Active” and the Activity (Escherichia coli [5]) was “Active”.

`CN1CCN(Cc2ccc(F)cc2)P12=NP(N1CCCC1)(N1CCCC1)=NP(N1CCCC1)(N1CCCC1)=N2` (centres undefined) was tested, and the zone of inhibition at 250 µM (Bacillus subtilis [12]) was 12.3 mm, the Activity (HeLa [3]) was “Dose-dependent effect” and the Activity (Escherichia coli [4]) was “Active”. The Activity (Escherichia coli [5]) was “Active” and the MIC (Bacillus subtilis [13]) was 9.8 µM (≈ 5.84 µg/mL).

With `CN1CCCN(Cc2ccc(F)cc2)P12=NP(N1CCCC1)(N1CCCC1)=NP(N1CCCC1)(N1CCCC1)=N2` (centres undefined) the zone of inhibition at 250 µM (Bacillus subtilis [12]) was 16.5 mm, the Activity (HeLa [10]) was 50% and the Activity (HeLa [3]) was “Dose-dependent effect”. For the same compound, the zone of inhibition at 250 µM (Bacillus cereus [14]) was 12.6 mm, the Activity (Escherichia coli [4]) was “Active” and the Activity (Escherichia coli [5]) was “Active”. For the same compound, the MIC (Bacillus subtilis [13]) was 9.8 µM (≈ 5.97 µg/mL) and the MIC (Bacillus cereus [15]) was 156 µM (≈ 95.3 µg/mL).

With `CN1CCCN(Cc2ccc(F)cc2)P12=NP(N1CCCCC1)(N1CCCCC1)=NP(N1CCCCC1)(N1CCCCC1)=N2` (centres undefined) the zone of inhibition at 250 µM (Candida albicans [1]) was 18.3 mm, the zone of inhibition at 250 µM (Candida tropicalis [2]) was 20 mm and the Activity (HeLa [16]) was “Active”. The Activity (HeLa [3]) was “Dose-dependent effect”, the Activity (Escherichia coli [4]) was “Active” and the Activity (Escherichia coli [5]) was “Active”. The MIC (Candida albicans [6]) was 9.8 µM (≈ 6.52 µg/mL) and the MIC (Candida tropicalis [7]) was 19.5 µM (≈ 13 µg/mL).

`CN1CCCN(Cc2ccc(F)cc2)P12=NP(N1CCOCC1)(N1CCOCC1)=NP(N1CCOCC1)(N1CCOCC1)=N2` (centres undefined) was tested, and the Activity (HeLa [10]) was 58%, the Activity (HeLa [17]) was “inactive” and the Activity (HeLa [18]) was “Active”. For the same compound, the Activity (Escherichia coli [11]) was “Active” and the Activity (Escherichia coli [5]) was “Active”.

For `CCN1CCN(Cc2ccc(F)cc2)P12=NP(N1CCCC1)(N1CCCC1)=NP(N1CCCC1)(N1CCCC1)=N2` (centres undefined), the zone of inhibition at 250 µM (Bacillus subtilis [12]) was 11.5 mm, the Activity (HeLa [19]) was “Active” and the Activity (HeLa [3]) was “Dose-dependent effect”. For the same compound, the Activity (Escherichia coli [4]) was “Active”, the Activity (Escherichia coli [5]) was “Active” and the MIC (Bacillus subtilis [13]) was 9.8 µM (≈ 5.97 µg/mL).

In the case of `CCN1CCN(Cc2ccc(F)cc2)P12=NP(N1CCCCC1)(N1CCCCC1)=NP(N1CCCCC1)(N1CCCCC1)=N2` (centres undefined), the zone of inhibition at 250 µM (Candida albicans [1]) is reported as 12.3 mm, the zone of inhibition at 250 µM (Candida tropicalis [2]) is reported as 17.3 mm and the zone of inhibition at 250 µM (Bacillus subtilis [12]) is reported as 10.7 mm. For the same compound, the Activity (HeLa [3]) was “Dose-dependent effect”, the Activity (Escherichia coli [4]) was “Active” and the Activity (Escherichia coli [5]) was “Active”. It also gave an MIC (Candida albicans [6]) of 625 µM (≈ 416 µg/mL), an MIC (Bacillus subtilis [13]) of 156 µM (≈ 104 µg/mL) and an MIC (Candida tropicalis [7]) of 19.5 µM (≈ 13 µg/mL).

With `CN1CCN(Cc2ccc(F)cc2)P12=NP(N1CCC3(CC1)OCCO3)(N1CCC3(CC1)OCCO3)=NP(N1CCC3(CC1)OCCO3)(N1CCC3(CC1)OCCO3)=N2` (centres undefined) the Activity (HeLa [10]) was “inactive”, the Activity (HeLa [20]) was “Active” and the Activity (HeLa [17]) was “inactive”. For the same compound, the Activity (HeLa [18]) was “Active”, the Activity (HeLa [21]) was “Active” and the Activity (Escherichia coli [4]) was “Active”. For the same compound, the Activity (Escherichia coli [5]) was “Active”.

For `CN1CCCN(Cc2ccc(F)cc2)P12=NP(N1CCC3(CC1)OCCO3)(N1CCC3(CC1)OCCO3)=NP(N1CCC3(CC1)OCCO3)(N1CCC3(CC1)OCCO3)=N2` (centres undefined), the Activity (HeLa [10]) was 49%, the Activity (HeLa [20]) was “Active” and the Activity (HeLa [17]) was “inactive”. The Activity (HeLa [18]) was “Active”, the Activity (HeLa [21]) was “Active” and the Activity (Escherichia coli [4]) was “Active”. For the same compound, the Activity (Escherichia coli [5]) was “Active”.

Compound `O=C(N[C@H](CO)[C@H](O)c1ccc([N+](=O)[O-])cc1)C(Cl)Cl` [CHLORAMPHENICOL] has a zone of inhibition at 30 µg/disc (Bacillus subtilis [22]) of 31 mm and a zone of inhibition at 30 µg/disc (Bacillus cereus [23]) of 26 mm.

In the case of `CC(=O)O[C@H]1C(=O)[C@@]2(C)[C@H]([C@H](OC(=O)c3ccccc3)[C@]3(O)C[C@H](OC(=O)[C@H](O)[C@@H](NC(=O)c4ccccc4)c4ccccc4)C(C)=C1C3(C)C)[C@]1(OC(C)=O)CO[C@@H]1C[C@@H]2O`, the Activity (HeLa [10]) is reported as “Active” and the Activity (HeLa [3]) is reported as “Dose-dependent effect”.

With `CCN1CCN(Cc2ccc(F)cc2)P12=NP(N1CCC3(CC1)OCCO3)(N1CCC3(CC1)OCCO3)=NP(N1CCC3(CC1)OCCO3)(N1CCC3(CC1)OCCO3)=N2` (centres undefined) the Activity (HeLa [10]) was “inactive”, the Activity (Escherichia coli [4]) was “Active” and the Activity (Escherichia coli [5]) was “Active”.

With `CN1CCN(Cc2ccc(F)cc2)P12=NP(N1CCOCC1)(N1CCOCC1)=NP(N1CCOCC1)(N1CCOCC1)=N2` (centres undefined) the Activity (HeLa [10]) was “inactive”, the Activity (Escherichia coli [11]) was “Active” and the Activity (Escherichia coli [5]) was “Active”.

For `CC1(C)S[C@@H]2[C@H](NC(=O)[C@H](N)c3ccccc3)C(=O)N2[C@H]1C(=O)O` [AMPICILLIN], the zone of inhibition at 10 µg/disc (Bacillus subtilis [24]) was 30.3 mm and the zone of inhibition at 10 µg/disc (Bacillus cereus [25]) was 26.3 mm.
